In brackets after ≈: the same amount, converted by molar mass.

The results in this text go back to patent US6147062A, “Phosphoryl hydrazine insecticides” (priority 1999, dated 2000).

Experiment [1] has as its system Mexican bean beetle (Epilachna varivestis). The experiment is described as follows: Mexican Bean Beetle Test. Format: in vivo. Particulars: 600 grams per hectare, 48 hours after infestation, treated lima bean leaf. The method, then:
The test solution was sprayed using a moving single boom tee jet sprayer at a volume equivalent to 935 liters/ha onto a petri dish containing a lima bean (Phaseolus limensis var: Woods' Prolific) leaf placed on a moistened piece of filter paper. After the leaf dried it was infested with ten beetles (Epilachna varivestis) and covered. The percent control was evaluated 48 hours after infestation.

The test system of experiment [2] is southern corn rootworm, Diabrotica undecimpunctata howardi. As to the kind of experiment: Corn Rootworm Screening Test. Conditions: in Zea mays, soil, 240 h, read-out: Percent Control of Corn Rootworm.
For experiment [3], the system named is Southern Root-Knot Nematode Meloidogyne incognita. As to the kind of experiment: Nematode Screening Test. The class given is in vivo. Particulars: 11400 grams per hectare; soil, cucumber roots, 21 days. How it is done: For the nematode test, soil was homogeneously inoculated with nematode eggs (Southern Root-Knot Nematode Meloidogyne incognita) at a rate of 20000 eggs per 200 milliliters (ml) of soil extracted from a macerated blend of tomato roots heavily knotted with the root-knot nematode. Ten ml of the 150 ppm test solution were added to 200 ml of the inoculated soil in a 16 oz. jar to give a concentration by volume of 11400 grams per hectare (gm/ha). […] The jars were shaken to ensure thorough mixing, immediately uncapped, and allowed to air for two hours. The soil was placed into a 7.5 cm plastic pot and three cucumber (Cucumis sativus) seeds were planted. The pots were held under greenhouse conditions for 21 days. Upon termination, the cucumber roots were examined for the presence of knots. Results are summarized in Table 2 and are expressed as percent knot reduction.

The test system of experiment [4] is Haemonchus contortus (McMaster, benzimidazole susceptible). The experiment is described as follows: Anthelmintic Test, inhibition of larval development. Particulars: 144 h, read-out: MIC (minimum inhibitory concentration). How it is done: (§1) Compounds were tested as inhibitors of larval development in Haemonchus contortus (McMaster, benzimidazole susceptible) isolates, Trichostrongylus colubriformis (McMaster susceptible) and Ostertagia circumcincta (Glenlothian susceptible).
(§2) Eggs of the parasitic helminths, isolated from sheep feces, were applied to wells of a microtiter plate which contained a gradient of concentrations of the test compound in nutrient solution. After the eggs hatched, L1 larvae developed through to the L3 stage over 6 days. Development was inhibited and a minimum inhibitory concentration in ppm was determined. See for example, E. Lacey et al p 177-184 in: Resistance of Parasites to Antiparasitic Drugs, edited by J. C. Boray MSD AGVET, Rahway, N.J.

Experiment [5] concerns Ostertagia circumcincta (Glenlothian susceptible). The experiment is described as above. Particulars: Teladorsagia circumcincta, 144 h, read-out: MIC (minimum inhibitory concentration). How it is done:
as §1, §2

Experiment [6] relates to Trichostrongylus colubriformis (McMaster susceptible). Described as above. Particulars: 144 h, read-out: MIC (minimum inhibitory concentration). The method, then:
as §1, §2

The test system of experiment [7] is Potato leafhopper (Empoasca fabae). As to the kind of experiment: Potato Leafhopper Test. The class given is in vivo. Particulars: 600 grams per hectare; 72 hours after infestation; treated fava bean leaf; read-out: Percent Control of Potato leaf hopper. The method, then: The test solution was sprayed using a moving single boom tee jet sprayer at a volume equivalent to 935 liters/ha onto a petri dish containing a fava bean (Vicia faba) leaf placed on a moistened piece of filter paper. After the leaf dried it was infested with five mixed nymphs (Empoasca fabae) and covered. The percent control was evaluated 72 hours after infestation.

In the case of `CCOP(=S)(OCC)N(NC(=O)C(Cl)(Cl)Cl)C(C)(C)C` [Compound 1, 1-(O,O-diethylthiophosphoryl)-1-tertbutyl-2-trichloroacetyl Hydrazine], the percent control at 600 g/ha in experiment [1] amounted to 100%. Besides, the mortality at 11400 g/ha, 11400 g/ha in experiment [2] worked out at 100%. Moreover, the “Percent Control of Root Knot Nematode (percent knot reduction)” value (from here on “Percent Control … (percent knot reduction)”) in experiment [3] came out at 98%.
`CCCOP(=S)(OCCC)N(NC(=O)C(Cl)(Cl)Cl)C(C)(C)C` [Compound 2] gave a percent control at 600 g/ha in experiment [1] of 100%. For the same molecule, the mortality at 11400 g/ha, 11400 g/ha in experiment [2] is 87%. The “Percent Control … (percent knot reduction)” value in experiment [3] was found to be 0%.
`CCCOP(=S)(OCC)N(NC(=O)C(Cl)(Cl)Cl)C(C)(C)C` (centres unmarked) [Compound 3] had a percent control at 600 g/ha in experiment [1] of 100%. The mortality at 11400 g/ha, 11400 g/ha in experiment [2] was 98%. The “Percent Control … (percent knot reduction)” value in experiment [3] turned out to be 74%.
In the case of `CCOP(=S)(OCC(C)(C)C)N(NC(=O)C(Cl)(Cl)Cl)C(C)(C)C` (centres unmarked) [Compound 4], in experiment [1], the percent control at 600 g/ha worked out at 100%. Also, the mortality at 11400 g/ha, 11400 g/ha in experiment [2] was determined as 0%. For the same molecule, the “Percent Control … (percent knot reduction)” value in experiment [3] was 0%.
In experiment [1], `CCOP(=S)(OC(C)CC)N(NC(=O)C(Cl)(Cl)Cl)C(C)(C)C` (centres unmarked) [Compound 5] displayed a percent control at 600 g/ha of 100%. Moreover, in experiment [2], the mortality at 11400 g/ha, 11400 g/ha stood at 96%. Moreover, the “Percent Control … (percent knot reduction)” value in experiment [3] is 0%.
In experiment [1], `CCOP(=S)(OC(C)C)N(NC(=O)C(Cl)(Cl)Cl)C(C)(C)C` (centres unmarked) [Compound 6] gave a percent control at 600 g/ha of 100%. The mortality at 11400 g/ha, 11400 g/ha in experiment [2] turned out to be 100%. Besides, in experiment [3], the “Percent Control … (percent knot reduction)” value is reported as 54%.
Consider `CCOP(=S)(OCC)N(NC(=O)C(F)(Cl)Cl)C(C)(C)C` [Compound 7], for which, in experiment [1], the percent control at 600 g/ha worked out at 80%. Moreover, in experiment [2], the mortality at 11400 g/ha, 11400 g/ha amounted to 96%. Also, in experiment [3], the “Percent Control … (percent knot reduction)” value stood at 0%.
Taken in the same sequence, the figures for `CCOP(=S)(OCC)N(NC(=O)C(Br)(Br)Br)C(C)(C)C` [Compound 8] were 30%, 0% and 98%.
Regarding `COP(=S)(OC)N(NC(=O)C(Cl)(Cl)Cl)C(C)(C)C` [Compound 9], in experiment [1], the percent control at 600 g/ha came out at 100%. Further, the mortality at 11400 g/ha, 11400 g/ha in experiment [2] was determined as 100%. For the same molecule, the “Percent Control … (percent knot reduction)” value in experiment [3] is listed as 100%.
Regarding `CCOP(=S)(OCC)N(NC(=O)C(Cl)Cl)C(C)(C)C` [Compound 10, 1-(O,O-diethylthiophosphoryl)-1-tertbutyl-2-dichloroacetyl Hydrazine], in experiment [1], the percent control at 600 g/ha is 100%. Moreover, the MIC in experiment [4] was determined as 1.56 µg/mL (≈ 4.44 µM); in experiment [5], 1.56 µg/mL (≈ 4.44 µM); in experiment [6], 12.5 µg/mL (≈ 35.6 µM). Further, the mortality at 11400 g/ha, 11400 g/ha in experiment [2] came to 0%. Moreover, the “Percent Control … (percent knot reduction)” value in experiment [3] worked out at 100%.
With `CCOP(=S)(OCC)N(NC(=O)CCl)C(C)(C)C` [Compound 11, 1-(O,O-diethylthiophosphoryl)-1-tertbutyl-2-monochloroacetyl Hydrazine], the mortality at 11400 g/ha, 11400 g/ha in experiment [2] worked out at 0%. Besides, the mortality at 600 g/ha, 600 g/ha in experiment [7] turned out to be 100%. In addition, the “Percent Control … (percent knot reduction)” value in experiment [3] is reported as 43%.
In the case of `CCOP(=S)(OCC)N(NC(=O)C(F)(F)F)C(C)(C)C` [Compound 12], the mortality at 11400 g/ha, 11400 g/ha in experiment [2] was found to be 100%. Also, in experiment [7], the mortality at 600 g/ha, 600 g/ha was 100%. The “Percent Control … (percent knot reduction)” value in experiment [3] is reported as 0%.
`COP(=S)(OC)N(NC(=O)C(Cl)Cl)C(C)(C)C` [Compound 13]: the mortality at 11400 g/ha, 11400 g/ha in experiment [2] stood at 0%. The mortality at 600 g/ha, 600 g/ha in experiment [7] was found to be 100%. In addition, in experiment [3], the “Percent Control … (percent knot reduction)” value is 100%.
Regarding `COP(=S)(OC)N(NC(=O)CCl)C(C)(C)C` [Compound 14], the mortality at 11400 g/ha, 11400 g/ha in experiment [2] is 0%. For the same molecule, the mortality at 600 g/ha, 600 g/ha in experiment [7] worked out at 100%. Further, the “Percent Control … (percent knot reduction)” value in experiment [3] is reported as 0%.
For the molecule `CCOP(=S)(OCC)N(NC(=O)C(F)(F)Cl)C(C)(C)C` [Compound 15], in experiment [2], the mortality at 11400 g/ha, 11400 g/ha amounted to 0%. Moreover, the mortality at 600 g/ha, 600 g/ha in experiment [7] amounted to 100%. Moreover, the “Percent Control … (percent knot reduction)” value in experiment [3] was found to be 0%.
Regarding `COCCOP(=S)(OCCOC)N(NC(=O)C(Cl)(Cl)Cl)C(C)(C)C` [Compound 16], the mortality at 11400 g/ha, 11400 g/ha in experiment [2] worked out at 66%. Further, the mortality at 600 g/ha, 600 g/ha in experiment [7] came to 100%. In addition, in experiment [3], the “Percent Control … (percent knot reduction)” value is listed as 0%.
Turning to `COCCOP(=S)(OCCOC)N(NC(=O)C(Cl)Cl)C(C)(C)C` [Compound 17], the mortality at 11400 g/ha, 11400 g/ha in experiment [2] was determined as 0%. In experiment [7], the mortality at 600 g/ha, 600 g/ha was determined as 60%. Further, in experiment [3], the “Percent Control … (percent knot reduction)” value was found to be 0%.
Regarding `CCOP(=S)(OCCOC)N(NC(=O)C(Cl)(Cl)Cl)C(C)(C)C` (centres unmarked) [Compound 18], the mortality at 11400 g/ha, 11400 g/ha in experiment [2] amounted to 0%. Besides, the mortality at 600 g/ha, 600 g/ha in experiment [7] amounted to 100%. Further, the “Percent Control … (percent knot reduction)” value in experiment [3] is listed as 25%.
With `CCOP(=S)(OCCOC)N(NC(=O)C(Cl)Cl)C(C)(C)C` (centres unmarked) [Compound 19], the mortality at 11400 g/ha, 11400 g/ha in experiment [2] turned out to be 0%. In addition, the mortality at 600 g/ha, 600 g/ha in experiment [7] was 100%. Besides, the “Percent Control … (percent knot reduction)” value in experiment [3] is recorded as 90%.
Regarding `CCOP(=S)(c1ccccc1)N(NC(=O)C(Cl)(Cl)Cl)C(C)(C)C` (centres unmarked) [Compound 22], the mortality at 11400 g/ha, 11400 g/ha in experiment [2] worked out at 0%. In addition, the mortality at 600 g/ha, 600 g/ha in experiment [7] stood at 100%.
